Laboratory results published in the NIST ThermoML archive (doi:10.1016/j.jct.2018.08.013).
Several values for one entry are separate records, joined by “and”; a condition that tells them apart may be missing. Equal entries are not always repeated.

Test: specific heat capacity at constant pressure; xn = mol fraction of the nth substance listed
Settings: 100 kPa, Crystal of intercomponent compound 1, x2 = 0.486

[Te] [tellurium] + [Ga]
Settings	specific heat capacity
241.59 K, relaxation calorimetry	244.22 J/K/kg
241.78 K, relaxation calorimetry	242.8 J/K/kg
241.86 K, relaxation calorimetry	243.61 J/K/kg
241.89 K, relaxation calorimetry	243.51 J/K/kg
245.93 K, relaxation calorimetry	243.46 J/K/kg
245.97 K, relaxation calorimetry	243.31 J/K/kg
246.62 K, relaxation calorimetry	244.93 J/K/kg
246.79 K, relaxation calorimetry	243.87 J/K/kg
248.47 K, relaxation calorimetry	241.79 J/K/kg
248.52 K, relaxation calorimetry	242.09 J/K/kg
248.53 K, relaxation calorimetry	241.99 J/K/kg
249.9 K, relaxation calorimetry	242.85 J/K/kg
249.93 K, relaxation calorimetry	242.9 J/K/kg
251.64 K, relaxation calorimetry	245.64 J/K/kg
251.81 K, relaxation calorimetry	244.63 J/K/kg
253.96 K, relaxation calorimetry	242.96 J/K/kg
254 K, relaxation calorimetry	243.06 J/K/kg
256.38 K, relaxation calorimetry	242.14 J/K/kg
256.44 K, relaxation calorimetry	242.35 J/K/kg and 242.65 J/K/kg
256.66 K, relaxation calorimetry	246.25 J/K/kg
256.83 K, relaxation calorimetry	245.08 J/K/kg
258.12 K, relaxation calorimetry	244.12 J/K/kg
258.16 K, relaxation calorimetry	244.02 J/K/kg
260.51 K, Extra sensitive DSC	245.54 J/K/kg
261.66 K, relaxation calorimetry	248.07 J/K/kg
261.82 K, relaxation calorimetry	246.86 J/K/kg
262.18 K, relaxation calorimetry	245.13 J/K/kg
262.22 K, relaxation calorimetry	244.93 J/K/kg
263.12 K, Extra sensitive DSC	246.4 J/K/kg
264.28 K, relaxation calorimetry	243.97 J/K/kg
264.35 K, relaxation calorimetry	244.43 J/K/kg and 244.17 J/K/kg
265.73 K, Extra sensitive DSC	246.3 J/K/kg
266.13 K, relaxation calorimetry	246.15 J/K/kg
266.19 K, relaxation calorimetry	245.59 J/K/kg
266.68 K, relaxation calorimetry	246.55 J/K/kg
266.71 K, relaxation calorimetry	246.55 J/K/kg
266.72 K, relaxation calorimetry	246.4 J/K/kg
268.33 K, Extra sensitive DSC	246.81 J/K/kg
270.07 K, Extra sensitive DSC	246.96 J/K/kg
270.3 K, relaxation calorimetry	248.78 J/K/kg
270.35 K, relaxation calorimetry	247.67 J/K/kg
270.64 K, relaxation calorimetry	247.06 J/K/kg
270.65 K, relaxation calorimetry	246.66 J/K/kg
271.54 K, relaxation calorimetry	248.83 J/K/kg
271.73 K, relaxation calorimetry	246.76 J/K/kg
271.83 K, relaxation calorimetry	246.35 J/K/kg
272.68 K, Extra sensitive DSC	247.06 J/K/kg
272.79 K, relaxation calorimetry	247.62 J/K/kg
272.8 K, relaxation calorimetry	247.31 J/K/kg
273.54 K, relaxation calorimetry	249.19 J/K/kg
273.74 K, relaxation calorimetry	246.71 J/K/kg
273.84 K, relaxation calorimetry	246.55 J/K/kg
275.28 K, Extra sensitive DSC	247.26 J/K/kg
275.55 K, relaxation calorimetry	249.14 J/K/kg
275.75 K, relaxation calorimetry	246.76 J/K/kg
275.85 K, relaxation calorimetry	246.5 J/K/kg
277.54 K, relaxation calorimetry	249.29 J/K/kg
277.75 K, relaxation calorimetry	246.76 J/K/kg
277.85 K, relaxation calorimetry	246.55 J/K/kg
277.88 K, Extra sensitive DSC	247.72 J/K/kg
279.54 K, relaxation calorimetry	249.09 J/K/kg
279.76 K, relaxation calorimetry	246.5 J/K/kg
279.87 K, relaxation calorimetry	246.45 J/K/kg
280.49 K, Extra sensitive DSC	247.87 J/K/kg
281.52 K, relaxation calorimetry	249.09 J/K/kg
281.76 K, relaxation calorimetry	246.25 J/K/kg
281.87 K, relaxation calorimetry	246.1 J/K/kg
283.09 K, Extra sensitive DSC	248.33 J/K/kg
283.53 K, relaxation calorimetry	248.99 J/K/kg
283.78 K, relaxation calorimetry	246.15 J/K/kg
283.87 K, relaxation calorimetry	246.66 J/K/kg
285.53 K, relaxation calorimetry	249.44 J/K/kg
285.7 K, Extra sensitive DSC	248.58 J/K/kg
285.78 K, relaxation calorimetry	246.4 J/K/kg
285.88 K, relaxation calorimetry	246.6 J/K/kg
287.54 K, relaxation calorimetry	249.54 J/K/kg
287.78 K, relaxation calorimetry	246.35 J/K/kg
287.89 K, relaxation calorimetry	246.66 J/K/kg
288.3 K, Extra sensitive DSC	248.89 J/K/kg
289.53 K, relaxation calorimetry	249.65 J/K/kg
289.79 K, relaxation calorimetry	246.55 J/K/kg
289.89 K, relaxation calorimetry	246.86 J/K/kg
290.04 K, Extra sensitive DSC	248.94 J/K/kg
291.53 K, relaxation calorimetry	250.41 J/K/kg
291.8 K, relaxation calorimetry	247.16 J/K/kg
291.9 K, relaxation calorimetry	247.52 J/K/kg
292.64 K, Extra sensitive DSC	249.09 J/K/kg
293.52 K, relaxation calorimetry	251.32 J/K/kg
293.81 K, relaxation calorimetry	248.68 J/K/kg
293.9 K, relaxation calorimetry	248.89 J/K/kg
295.25 K, Extra sensitive DSC	249.29 J/K/kg
295.51 K, relaxation calorimetry	251.37 J/K/kg
295.84 K, relaxation calorimetry	249.34 J/K/kg
295.91 K, relaxation calorimetry	249.34 J/K/kg
297.52 K, relaxation calorimetry	250.81 J/K/kg
297.83 K, relaxation calorimetry	250.71 J/K/kg
297.85 K, Extra sensitive DSC	249.75 J/K/kg
297.93 K, relaxation calorimetry	248.68 J/K/kg
299.53 K, relaxation calorimetry	250.25 J/K/kg
299.85 K, relaxation calorimetry	250.15 J/K/kg
299.94 K, relaxation calorimetry	248.63 J/K/kg
300.45 K, Extra sensitive DSC	249.9 J/K/kg
301.54 K, relaxation calorimetry	251.06 J/K/kg
301.87 K, relaxation calorimetry	250.86 J/K/kg
301.95 K, relaxation calorimetry	249.39 J/K/kg
303.06 K, Extra sensitive DSC	250.51 J/K/kg
303.81 K, relaxation calorimetry	250.56 J/K/kg
303.84 K, relaxation calorimetry	252.33 J/K/kg
303.87 K, relaxation calorimetry	250.51 J/K/kg
305.66 K, Extra sensitive DSC	250.76 J/K/kg
307.4 K, Extra sensitive DSC	250.81 J/K/kg
310 K, Extra sensitive DSC	251.22 J/K/kg
312.6 K, Extra sensitive DSC	251.42 J/K/kg
315.21 K, Extra sensitive DSC	251.88 J/K/kg
317.81 K, Extra sensitive DSC	251.93 J/K/kg
320.41 K, Extra sensitive DSC	252.23 J/K/kg
323.02 K, Extra sensitive DSC	252.48 J/K/kg
325.62 K, Extra sensitive DSC	252.53 J/K/kg
327.36 K, Extra sensitive DSC	252.74 J/K/kg
329.96 K, Extra sensitive DSC	253.04 J/K/kg
332.56 K, Extra sensitive DSC	253.19 J/K/kg
335.17 K, Extra sensitive DSC	253.5 J/K/kg
337.77 K, Extra sensitive DSC	253.7 J/K/kg
340.38 K, Extra sensitive DSC	254 J/K/kg
342.98 K, Extra sensitive DSC	254.41 J/K/kg
345.58 K, Extra sensitive DSC	254.41 J/K/kg
348.19 K, Extra sensitive DSC	254.76 J/K/kg
349.92 K, Extra sensitive DSC	254.76 J/K/kg
352.53 K, Extra sensitive DSC	254.66 J/K/kg
355.13 K, Extra sensitive DSC	255.32 J/K/kg
356.87 K, Extra sensitive DSC	255.07 J/K/kg
358.6 K, Extra sensitive DSC	254.97 J/K/kg
